In experiment [1] the test system is Kumulus-Eizell Komplexe. Description: cumulus expansion test in vitro. The experiment is classed as cell-based, Mäusen. To be noted: in competition with PGE2. The source says:
In immaturen weiblichen Mäusen (Stamm : CD1 (ICR) von Charles River) wird in einem Alter von 14-18 Tagen die Follikulogenese durch eine einmalige Gabe (intraperitoneal) von 10 I.E. PMSG (Pregnant Mare Serum Gonadotropine; Sigma G-4877, Lot 68H0909) induziert. 47 - 50 Stunden nach der Injektion werden die Ovarien entnommen und die Kumulus-Eizell Komplexe entnommen. Der Kumulus Komplex ist in diesem Stadium noch nicht expandiert. Die Kumulus-Eizell Komplexe werden nun für 20 - 24 Stunden mit Prostaglandin E2 (PGE2) (0,3 µM), Vehikel Kontrolle (Ethanol) oder Testsubstanzen inkubiert. Medium: alpha- MEM Medium mit 0,1 mM IBMX, Pyruvate (0,23 mM) Glutamine (2 mM), Pen/Strep 100 IU/ml Pen. und 100 µg/ml Strep.) und HSA (8 mg/ml)). Danach wird die Kumulus Expansion durch die Einteilung in vier Stadien (nach Vanderhyden et al. Dev Biol. 1990 Aug;140(2):307-317) festgestellt. Tabelle 1: Beispiel für die biologische Wirksamkeit der erfindungsgemäßen Verbindungen (gemessen mittels cAMP Antagonismustest): […]

The target of experiment [2] is T1, humanen Prostaglandin E2 (Subtyp EP2) Rezeptor (Homo sapiens, UniProt P43116).
T1 construct: host or cells: cells in a culture plate
T1 sequence (P43116 whole entry): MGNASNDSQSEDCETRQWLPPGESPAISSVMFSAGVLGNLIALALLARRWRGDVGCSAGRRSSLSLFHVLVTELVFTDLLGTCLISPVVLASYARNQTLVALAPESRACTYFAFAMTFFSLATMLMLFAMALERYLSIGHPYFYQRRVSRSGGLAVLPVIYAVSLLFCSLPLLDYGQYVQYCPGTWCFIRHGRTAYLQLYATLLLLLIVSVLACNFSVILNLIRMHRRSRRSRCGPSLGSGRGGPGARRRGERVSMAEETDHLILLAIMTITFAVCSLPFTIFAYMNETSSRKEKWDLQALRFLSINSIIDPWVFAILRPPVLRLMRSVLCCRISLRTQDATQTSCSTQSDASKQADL
Kind of experiment: cAMP antagonism test (HTRF cAMP detection, in presence of PGE2). It counts as cell-based. To be noted: cAMP Antagonismustest, read-out: Antagonismus [IC50. The text has this: Die Bindung von PGE2 an den EP2-Subtyp des humanen PGE2-Rezeptors induziert die Aktivierung membranständiger Adenylatzyklasen und führt zur Bildung von cAMP. In Gegenwart des Phosphodiesteraseinhibitors IBMX wird das durch diese Stimulation akkumulierte und mittels Zell-Lyse freigesetzte cAMP in einem kompetitiven Nachweisverfahren eingesetzt. In diesem Test konkurriert das cAMP im Lysat mit cAMP-XL665 um die Bindung eines Eu-Kryptat markierten Anti-cAMP Antikörpers. Dabei entsteht in Abwesenheit von zellulärem cAMP ein maximales Signal, welches auf der Kopplung dieses Antikörpers an das cAMP-XL665 Molekül beruht. Dadurch entsteht nach Anregung bei 337 nm ein auf FRET (fluorescence resonance energy transfer) basierendes, lang anhaltendes Emissionssignal bei 665 nm (und bei […]). Beide Signale werden in einem geeigneten Messgerät zeitlich versetzt, d.h. nach Abklingen der Hintergrundsfluoreszenz gemessen. Jegliche Erhöhung des durch Prostglandin-E2-Gabe bedingten niedrigen FRET-Signals (gemessen als Well-Ratio-Veränderung = Emission665nm/Emission620nm * 10000) zeigt die Wirkung von Antagonisten.
Die in einer Testplatte und 30 % DMSO vorgelegten Substanzlösungen (0.75 µl) werden in 16 µl einer KRSB+IBMX-Stimulationslösung gelöst (1 X Krebs-Ringer Bicarbonate Buffer; Sigma-Aldrich # K-4002; inklusive 750 µM 3-Isobutyl-1-methylxanthine Sigma-Aldrich # I-7018), anschließend werden 15 µl davon in eine medienfreie Zellkulturplatte überführt, die kurz zuvor mit KRSB gewaschen worden war. Nach einer 30-minütigen Vorinkubation bei Raumtemperatur (RT) werden 5 µl einer 4xPGE2 Lösung (11 nM) zugegeben und in Gegenwart des Agonisten für weitere 60 min bei RT inkubiert (Volumen: - 20 µl), bevor die Reaktion anschließend durch Zugabe von 5 µl Lysispuffer gestoppt und für weitere 20 min bei RT inkubiert wird (Volumen: - 25 µl). Das Zell-Lysat wird anschließend in eine Messplatte überführt und entsprechend den Herstellerangaben (cyclic AMP kit Cisbio International # 62AMPPEC) gemessen.

The target in experiment [3] is T1, humanen Prostaglandin E2 (Subtyp EP2) Rezeptor. Description: cellular agonism test (HTRF cAMP detection, without PGE2). The experiment is classed as cell-based.

pIC50: −log10 of the molar value.

Here are results for 4 molecules from patent EP2014287A1, “Use of cinnamic acid derivatives as modulators of an EP2 receptor” (Bayer Schering Pharma Aktiengesellschaft, priority 2007, dated 2009).

In the case of `CC(C)Oc1ccc2c(=O)c3cc(C(=O)O)ccc3oc2c1` [AH 6809, reference compound], the “Unterdrückung der Kumulus Expansion” value in experiment [1] (100 - 200 µM) is reported as “ca. 30%”.

In the case of `CCOc1cccc(CCC(=O)NCCc2c(C)[nH]c3c(F)ccc(C)c23)c1` [Beispiel 7, 3-(3-Ethoxyphenyl)-N-[2-(7-fluoro-2,4-dimethyl-1 H-indol-3-yl)-ethyl]-propionamid], the pIC50 (usually −log10 of the IC50, conventionally taken in molar units) in experiment [2] is 5.92.

Regarding `Cc1[nH]c2c(F)ccc(C)c2c1CCNC(=O)CCc1ccc(F)cc1` [Beispiel 9, N-[2-(7-Fluoro-2,4-dimethyl-1 H-indol-3-yl)-ethyl]-3-(4-fluorophenyl)-propionamid], the “Wirkung im zellulären Agonismustest” value in experiment [3] is reported as “keine Inhibition”. Besides, in experiment [2], the pIC50 is 5.82. The “Unterdrückung der Kumulus Expansion” value in experiment [1] (10 µM) was 20%.

Take `Cc1[nH]c2c(F)ccc(C)c2c1CCNC(=O)/C=C/c1cc(F)cc(F)c1` [Beispiel 20, (E)-3-(3,5-Difluorphenyl)-N-[2-(7-fluor-2,4-dimethyl-1 H-indol-3-yl)-ethyl]-acrylamid]: in experiment [2], the pIC50 was 6.08.
